Read-outs that look alike come from different tables or passages of the source.
Target: T1, hURAT1 (Homo sapiens, UniProt Q96S37)
T1 sequence (Q96S37 1-553): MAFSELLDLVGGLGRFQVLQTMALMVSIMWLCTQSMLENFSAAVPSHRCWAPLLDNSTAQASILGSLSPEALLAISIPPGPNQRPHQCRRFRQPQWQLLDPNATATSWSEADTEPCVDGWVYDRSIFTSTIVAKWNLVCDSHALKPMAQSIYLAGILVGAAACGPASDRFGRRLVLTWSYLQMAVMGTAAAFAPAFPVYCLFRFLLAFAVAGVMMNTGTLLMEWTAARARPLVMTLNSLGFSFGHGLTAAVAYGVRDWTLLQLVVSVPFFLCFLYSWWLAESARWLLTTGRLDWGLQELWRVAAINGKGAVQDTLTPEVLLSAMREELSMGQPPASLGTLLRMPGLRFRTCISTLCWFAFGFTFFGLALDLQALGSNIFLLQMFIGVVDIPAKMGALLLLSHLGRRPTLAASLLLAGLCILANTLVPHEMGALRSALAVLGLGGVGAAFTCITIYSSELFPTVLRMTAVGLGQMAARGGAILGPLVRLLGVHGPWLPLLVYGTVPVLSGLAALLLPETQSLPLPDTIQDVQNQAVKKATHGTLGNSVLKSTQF
Assay: Inhibition assay of uric acid transport in HEK293-hURAT1 transfection cell line (14C-uric acid uptake)
Format: cell-based
Settings: for inhibition at 0.5 µM: read-out: Inhibitory rates of uric acid transport, ±SD (%); for inhibitory effect on uric acid transport (in words): 500 nM, in comparison with the control drug benzbromarone
Experimental: 1. Construction of a HEK293 Cell Line with High Expression of hURAT1:
The plasmid pCMV6-hURAT1 was transfected into HEK293 cells, and then the stable strain was obtained by the G418 (final concentration of 500 μg/mL) resistance screening, which is the high expression of hURAT1 transporter membrane protein. […] The HEK293 cells are the human embryonic kidney cells with high transfection efficiency, and are a very commonly used engineering cell line for expressing exogenous genes.
2. To a coated 24-well plate was added 200 μl of 0.1 mg/mL poly-lysine per well and the plate was left overnight. Poly-lysine was removed from wells. The wells were cleaned thoroughly with sterile water and dried for use.
3. To the above coated 24-well plate was added HEK293-hURAT1 stable cells (2×10^5 cells per well). The cells were cultured at 37° C. under 5% CO2 for 3 days.
4. […] The solution was fully mixed to give HBSS (pH value: 7.4). The buffer was stored at −20° C.
5. The HBSS buffer was warmed to 37° C. in a water bath. Taken out the 24-well plate with HEK293-hURAT1 stable cells, removed the culture medium and washed cells with HBSS, then added 160 μL of HBSS and 20 μL test compound per well. The final concentration of tested compound per well is 500 nM. The blank control well contains only 180 μL of HBSS without tested compound. The plate was placed at room temperature for 10 min.
6. To each well was added 20 μL of 50 μM ^14C-Uric acid. The 24-well plate was placed at room temperature for 20 min.
7. The solution in each well was removed and the cells were washed with the pre-cooled HBSS buffer. To each well was added 0.2 M NaOH to dissolve the cells. The solution containing cell fragments was collected and the right amount of scintillation liquid was added.
8. The formula for calculating the inhibitory rate of uric acid transport for compounds was shown as below (Table 1), the CPM value of the tested compounds was represented by CPM(tested compound) and the CPM value of the blank control was represented by CPM(blank control).

[1] = 500 nM compound concentration, HEK293-hURAT1 transfection cell line, 14C-uric acid, mean of three tests ± SD
[2] = HEK293-hURAT1 transfection cell line

inhibition at 0.5 µM [1]	inhibitory effect on uric acid transport (in words) [2]	SMILES	inhibition at 0.5 µM
62.1 ± 1.26%	very good inhibitory effects	CCc1nc2ccccn2c1C(O)c1cc(Br)c(O)c(C#N)c1 (stereo not shown) [Compound 20, 3-bromo-5-[(2-ethylimidazo[1,2-a]pyridine-3-yl)-hydroxymethyl]-2-hydroxybenzonitrile]	
50 ± 5.38%		CCc1nc2ncccn2c1C(=O)c1cc(Br)c(O)c(Br)c1 [Compound 4, (3,5-dibromo-4-hydroxyphenyl)(2-ethylimidazo[1,2-a]-pyrimidine-3-yl)methanone]	
48.7 ± 5.61%		CCc1oc2ccccc2c1C(OC)c1cc(Br)c(O)c(Br)c1 (stereo not shown) [Compound 58, 2,6-dibromo-4-[(2-ethylbenzofuran-3-yl)(methoxy)-methyl]phenol]	
33 ± 7.33%		CCc1nc2ccccn2c1C(O)c1ccc(O)c(C#N)c1 (stereo not shown) [Compound 21, 5-[(2-ethylimidazo[1,2-a]pyridine-3-yl)hydroxymethyl]-2-hydroxybenzonitrile]	
51.31 ± 0.16%	very good inhibitory effects	CCc1nc2cnccn2c1C(=O)c1cc(Br)c(O)c(Br)c1 [Compound 12, (3,5-dibromo-4-hydroxyphenyl)(2-ethylimidazo[1,2-a]-pyrazine-3-yl)methanone]	

The remaining lines, values behind:

SMILES	inhibition at 0.5 µM [1]	inhibitory effect on uric acid transport (in words) [2]	inhibition at 0.5 µM
CCc1nc2sccn2c1C(O)c1cc(Br)c(O)c(Br)c1 (stereo not shown) [Compound 22, 2,6-dibromo-4-[(6-ethylimidazo[2,1-b]thiazole-5-yl)-hydroxymethyl]phenol]	48.2 ± 3.86%		
CCc1nc2cc(C(F)(F)F)ccn2c1C(O)c1cc(Br)c(O)c(Br)c1 (stereo not shown) [Compound 41, 2,6-dibromo-4-{[2-ethyl-7-(trifluoromethyl)-imidazo[1,2-a]pyridine-3-yl]hydroxymethyl}phenol]	37.4 ± 5.52%		
CCc1oc2ccccc2c1C(=O)c1cc(Br)c(O)c(Br)c1 [Benzbromarone, (3,5-dibromo-4-hydroxy-'phenyl)(2-ethylbenzofuran-3-yl)-methanone, reference compound]			54.8 ± 5.12%
CCc1oc2ccccc2c1C(O)c1cc(Br)c(O)c(Br)c1 (stereo not shown) [Compound 42, 2,6-dibromo-4-[(2-ethylbenzofuran-3-yl)-hydroxymethyl]phenol]			37.4 ± 2.36%
CCc1nc2scnn2c1C(=O)c1cc(Br)c(O)c(Br)c1 [Compound 49, (3,5-dibromo-4-hydroxyphenyl)(6-ethylimidazo-[2,1-b][1,3,4]thiadiazole-5-yl)methanone]	31.91 ± 0.23%		
CCc1nn2ccccc2c1C(O)c1cc(Br)c(O)c(Br)c1 (stereo not shown) [Compound 35, 2,6-dibromo-4-[(2-ethylpyrazolo[1,5-a]pyridine-3-yl)-hydroxymethyl]phenol]	36.3 ± 1.79%		
CCc1nc2ccc(F)cn2c1C(O)c1cc(F)c(O)c(Br)c1 (stereo not shown) [Compound 28, 2-bromo-4-[(2-ethyl-6-fluoroimidazo[1,2-a]pyridine-3-yl)hydroxymethyl]-6-fluorophenol]	41.2 ± 1.92%		
CCc1nc2cc(OC)ccn2c1C(O)c1cc(Br)c(O)c(Br)c1 (stereo not shown) [Compound 64, 2,6-dibromo-4-{(2-ethyl-7-methoxyimidazo[1,2-a]-pyridine-3-yl)hydroxymethyl}phenol]	39.9 ± 5.34%		
CCc1nc2ccccn2c1C(O)c1cc(C)c(O)c(Br)c1 (stereo not shown) [Compound 54, 2-bromo-4-(2-ethylimidazo[1,2-a]pyridine-3-yl)-hydroxymethyl-6-methylphenol]	42.9 ± 3.44%		
CCc1nc2cnccn2c1C(O)c1cc(Br)c(O)c(Br)c1 (stereo not shown) [Compound 23, 2,6-dibromo-4-[(2-ethylimidazo[1,2-a]pyrazine-3-yl)-hydroxymethyl]phenol]	50.2 ± 1.02%	very good inhibitory effects	
CCc1nc2sccn2c1C(=O)c1cc(Br)c(O)c(Br)c1 [Compound 8, (3,5-dibromo-4-hydroxyphenyl)(6-ethylimidazo[2,1-b]-thiazole-5-yl)methanone]	55.2 ± 3.94%	very good inhibitory effects	
CCc1nc2ccc(Br)cn2c1C(O)c1cc(Br)c(O)c(Br)c1 (stereo not shown) [Compound 40, 2,6-dibromo-4-[(6-bromo-2-ethylimidazo[1,2-a]-pyridine-3-yl)hydroxymethyl]phenol]	51.7 ± 2.43%	very good inhibitory effects	

From patent publication USRE50083E1, “URAT1 inhibitor and use thereof” (Jiangsu Atom Bioscience and Pharmaceutical Co., Ltd., priority 2016, dated 2024)
